Data taken from US10858352B2, “Pharmaceutical compounds” (Heptares Therapeutics Limited, priority 2018, dated 2020).
Read-outs that look alike come from different tables or passages of the source.

How the values were obtained:
Format in all cases: cell-based
[1] = molecular target: T1, human muscarinic M1 receptor (Homo sapiens, UniProt P11229); assay: Alphascreen Surefire phospho-ERK1/2 functional assay, M1; conditions: for EC50: agonist 5 min, 37° C.; for Emax: CHO, read-out: % Emax cf. ACh (M1), CHO cells stably expressing human M1; for Emax / % Emax cf. ACh (M1): Emax relative to ACh
T1 sequence (P11229 1-460): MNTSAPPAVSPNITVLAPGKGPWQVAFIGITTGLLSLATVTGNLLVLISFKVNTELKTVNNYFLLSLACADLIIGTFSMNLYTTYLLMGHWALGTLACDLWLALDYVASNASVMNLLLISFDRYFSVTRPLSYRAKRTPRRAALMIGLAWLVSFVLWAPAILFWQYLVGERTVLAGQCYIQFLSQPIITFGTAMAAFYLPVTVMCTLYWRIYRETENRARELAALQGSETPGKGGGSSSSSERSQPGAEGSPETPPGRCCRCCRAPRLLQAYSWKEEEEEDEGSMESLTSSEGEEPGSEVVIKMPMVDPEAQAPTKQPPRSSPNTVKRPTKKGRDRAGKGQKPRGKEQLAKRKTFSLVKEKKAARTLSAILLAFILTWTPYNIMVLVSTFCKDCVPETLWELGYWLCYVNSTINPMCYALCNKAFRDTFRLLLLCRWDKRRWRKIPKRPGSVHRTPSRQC
Procedure: (§1) ERK1/2 phosphorylation is a downstream consequence of both Gq/11 and Gi/o protein coupled receptor activation, making it highly suitable for the assessment of M1, M3 (Gq/11 coupled) and M2, M4 receptors (Gi/o coupled), rather than using different assay formats for different receptor subtypes. CHO cells stably expressing the human muscarinic M1, M2, M3 or M4 receptor were plated (25K/well) onto 96-well tissue culture plates in MEM-alpha+10% dialysed FBS. Once adhered, cells were serum-starved overnight. Agonist stimulation was performed by the addition of 5 μL agonist to the cells for 5 min (37° C.). Media was removed and 50 μL of lysis buffer added. After 15 min, a 4 μL sample was transferred to 384-well plate and 7 μL of detection mixture added. […]

[2] = molecular target: T2, human muscarinic M2 receptor (Homo sapiens, UniProt P08172); assay: Alphascreen Surefire phospho-ERK1/2 functional assay, M2; conditions: for Emax: CHO
T2 sequence (P08172 1-466): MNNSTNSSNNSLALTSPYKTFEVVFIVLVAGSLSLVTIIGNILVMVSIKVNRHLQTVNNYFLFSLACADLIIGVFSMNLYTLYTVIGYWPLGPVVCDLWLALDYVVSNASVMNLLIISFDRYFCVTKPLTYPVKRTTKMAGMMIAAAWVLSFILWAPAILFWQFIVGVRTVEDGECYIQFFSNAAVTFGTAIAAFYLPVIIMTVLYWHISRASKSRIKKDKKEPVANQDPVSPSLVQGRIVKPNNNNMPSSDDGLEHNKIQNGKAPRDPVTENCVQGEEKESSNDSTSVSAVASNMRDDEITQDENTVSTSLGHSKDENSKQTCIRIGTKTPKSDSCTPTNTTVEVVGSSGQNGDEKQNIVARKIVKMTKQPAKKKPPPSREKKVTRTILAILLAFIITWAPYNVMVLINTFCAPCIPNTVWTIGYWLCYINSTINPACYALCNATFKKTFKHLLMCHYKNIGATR
Procedure: as §1

[3] = molecular target: T3, human muscarinic M3 receptor (Homo sapiens, UniProt P20309); assay: Alphascreen Surefire phospho-ERK1/2 functional assay, M3; conditions: for Emax: CHO
T3 construct: expressed in transfected cells
T3 sequence (P20309 whole entry): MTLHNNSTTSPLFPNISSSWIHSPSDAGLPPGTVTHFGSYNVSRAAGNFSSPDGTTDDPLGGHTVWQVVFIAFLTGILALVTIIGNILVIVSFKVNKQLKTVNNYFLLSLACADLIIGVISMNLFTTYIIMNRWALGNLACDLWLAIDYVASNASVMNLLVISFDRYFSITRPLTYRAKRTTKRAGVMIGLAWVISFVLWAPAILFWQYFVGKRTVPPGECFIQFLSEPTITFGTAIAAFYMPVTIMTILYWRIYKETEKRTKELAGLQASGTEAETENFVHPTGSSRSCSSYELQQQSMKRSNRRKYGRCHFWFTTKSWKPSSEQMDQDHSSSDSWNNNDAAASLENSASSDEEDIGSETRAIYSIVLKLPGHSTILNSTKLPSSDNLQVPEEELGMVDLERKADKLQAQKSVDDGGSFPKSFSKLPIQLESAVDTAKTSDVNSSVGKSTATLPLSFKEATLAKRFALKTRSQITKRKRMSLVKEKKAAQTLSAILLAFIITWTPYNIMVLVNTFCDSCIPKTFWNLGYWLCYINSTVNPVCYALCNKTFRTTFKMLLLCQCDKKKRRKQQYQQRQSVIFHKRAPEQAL
Procedure: as §1

[4] = molecular target: T4, human muscarinic M4 receptor (Homo sapiens, UniProt P08173); assay: Alphascreen Surefire phospho-ERK1/2 functional assay, M4; conditions: for EC50 / % Emax cf. ACh (M4): CHO cells stably expressing human M4; for EC50: agonist 5 min, 37° C., read-out: pEC50 M4 (converted); for Emax: CHO, read-out: % Emax cf. ACh (M4), CHO cells stably expressing human M4; for Emax / % Emax cf. ACh (M4): Emax relative to ACh
T4 construct: expressed in transfected cells
T4 sequence (P08173 1-479): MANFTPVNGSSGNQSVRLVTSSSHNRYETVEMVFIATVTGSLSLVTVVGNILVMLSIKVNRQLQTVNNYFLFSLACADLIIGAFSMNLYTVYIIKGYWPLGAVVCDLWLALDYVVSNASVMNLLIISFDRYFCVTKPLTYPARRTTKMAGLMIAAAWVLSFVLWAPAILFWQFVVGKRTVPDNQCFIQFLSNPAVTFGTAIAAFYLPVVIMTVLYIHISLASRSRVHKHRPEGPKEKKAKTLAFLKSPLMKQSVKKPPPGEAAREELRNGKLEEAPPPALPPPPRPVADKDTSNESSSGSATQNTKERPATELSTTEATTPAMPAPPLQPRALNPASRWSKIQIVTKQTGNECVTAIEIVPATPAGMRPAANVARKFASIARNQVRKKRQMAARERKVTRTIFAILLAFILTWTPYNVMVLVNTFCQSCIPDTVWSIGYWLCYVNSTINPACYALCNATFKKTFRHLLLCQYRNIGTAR
Procedure: as §1

[5] = CHO cells stably expressing human M1, read-out: pEC50 M1 (converted)
[6] = CHO cells stably expressing human M2, agonist 5 min, 37° C., read-out: pEC50 M2 (converted)
[7] = CHO cells stably expressing human M3, agonist 5 min, 37° C., read-out: pEC50 M3 (converted)
[8] = read-out: % Emax cf. ACh (M2), CHO cells stably expressing human M2, Emax relative to ACh
[9] = read-out: % Emax cf. ACh (M3), CHO cells stably expressing human M3, Emax relative to ACh
[10] = CHO cells stably expressing human M1
[11] = pEC50 M1, CHO cells stably expressing human M1

Row | Structure (SMILES) | EC50 [1, 5] [µM] | Emax [1] [%] | EC50 [2, 6] [µM] | Emax ([2]; read-out: % Emax cf. ACh (M2)) [%] | EC50 [3, 7] [µM] | Emax ([3]; read-out: % Emax cf. ACh (M3)) [%] | EC50 [4] [µM] | Emax [4] [%] | Emax [2, 8] [%] | Emax [3, 9] [%] | % Emax cf. ACh (M1) [1, 10] | % Emax cf. ACh (M2) ([2]; CHO cells stably expressing human M2, Emax relative to ACh) | pEC50 M2 ([2]; CHO cells stably expressing human M2, agonist 5 min, 37° C.) | % Emax cf. ACh (M3) ([3]; CHO cells stably expressing human M3, Emax relative to ACh) | pEC50 M3 ([3]; CHO cells stably expressing human M3, agonist 5 min, 37° C.) | % Emax cf. ACh (M4) [4] | EC50 [1, 11] [µM] | EC50 [2] [µM] | EC50 [3] [µM]
1 | Cc1noc(N2C3CCC2CC(N2CCC(C(=O)NC4(C)CCC4)CC2)C3)n1 (single isomer, unassigned) [6-5 Isomer 2] | 0.148 | 100 | > 20 | 31 | > 20 | 11 | 0.195 | 79 | – | – | – | – | – | – | – | – | – | – | –
2 | Cc1noc(N2CC3CCC2CC3N2CCC(n3cccn3)CC2)n1 (single isomer, unassigned) [7-1 Isomer 1] | > 20 | 18 | > 20 | – | > 20 | – | 0.151 | 85 | 11 | 7 | – | – | – | – | – | – | – | – | –
3 | Cc1noc(N2CC3CCC2CC3N2CCC(n3cccn3)CC2)n1 (single isomer, unassigned) [7-1 Isomer 2] | 2.29 | – | – | – | – | – | 0.0851 | – | – | – | (33) % | (15) % | <4.70 | (6) % | <4.70 | (99) % | – | – | –
4 | Cc1noc(N2C3CCCC2CC(N2CCC4(CC2)CNC(=O)O4)C3)n1 (single isomer, unassigned) [8-3 Isomer 1] | 0.295 | 39 | > 20 | 4 | > 20 | 1 | > 20 | 67 | – | – | – | – | – | – | – | – | – | – | –
5 | Cc1noc(N2C3COCC2CC(N2CCC(n4cccn4)CC2)C3)n1 (single isomer, unassigned) [9-1 Isomer 1] | > 20 | 15 | > 20 | 21 | > 20 | 1 | 0.105 | 77 | – | – | – | – | – | – | – | – | – | – | –
6 | CCN(CC)C(=O)[C@H]1[C@@H]2CN(C3CC4COCC(C3)N4c3nc(C)no3)C[C@@H]21 (single isomer, unassigned) [9-2 Isomer 2] | 0.219 | 109 | > 20 | 27 | 6.31 | 42 | 0.741 | 74 | – | – | – | – | – | – | – | – | – | – | –
7 | Cc1noc(N2CCCC(N3CCC4(CC3)CNC(=O)C4)CC2)n1 (single isomer, unassigned) [10-2 Isomer 1] | 0.0933 | 66 | > 20 | – | > 20 | – | > 20 | 10 | 3 | 5 | – | – | – | – | – | – | – | – | –
8 | Cc1noc(N2CCCC(N3CCC4(CC3)C(=O)Nc3ccccc34)CC2)n1 (single isomer, unassigned) [10-6 Isomer 1] | – | 76 | – | 60 | – | 4 | 0.0776 | 77 | – | – | – | – | – | – | – | – | 0.661 | > 20 | > 20
9 | Cc1noc(N2CCCC(N3CCC(N4C[C@H](F)C[C@@H]4CO)CC3)CC2)n1 (single isomer, unassigned) [10-7 Isomer 1] | 3.72 | – | > 20 | – | > 20 | – | 0.105 | 89 | 15 | 2 | (44) % | – | – | – | – | – | – | – | –
10 | Cc1noc(N2CC3CC(N4CCC5(CC4)CNC(=O)C5)CC2C3)n1 (single isomer, unassigned) [11-2 Isomer 2] | 0.00955 | 67 | > 20 | – | > 20 | – | > 20 | 15 | 8 | 5 | – | – | – | – | – | – | – | – | –
11 | Cc1noc(N2CC3CC(N4CCC5(CC4)CNC(=O)O5)CC2C3)n1 (single isomer, unassigned) [11-3 Isomer 2] | 0.0708 | 65 | > 20 | – | > 20 | – | > 20 | 11 | 21 | 22 | – | – | – | – | – | – | – | – | –
12 | Cc1noc(N2CC3CCC2CC3N2CCC3(CC2)CNC(=O)C3)n1 (single isomer, unassigned) [12-1 Isomer 2] | 0.0324 | – | > 20 | – | > 20 | – | 0.117 | – | 6 | 2 | (106) % | – | – | – | – | (30) % | – | – | –
13 | Cc1noc(N2CC3CCC2CC3N2CCC3(CC2)CNC(=O)O3)n1 (single isomer, unassigned) [12-2 Isomer 2] | 0.398 | 80 | > 20 | – | > 20 | – | > 20 | 18 | 14 | 1 | – | – | – | – | – | – | – | – | –
14 | O=C1CC2(CCN(C3CC4CCC(C3)N4c3nc(C(F)(F)F)no3)CC2)CN1 (single isomer, unassigned) [12-3 Isomer 1] | – | 67 | – | 19 | – | 31 | > 20 | 14 | – | – | – | – | – | – | – | – | 0.0316 | > 20 | > 20
